Test results as given in US5910494A, “Hypolipidemic 1,4-benzothiazepine-1,1-dioxides” (Glaxo Wellcome Inc., priority 1997, dated 1999).

System: ileal bile acid active uptake transport system
Test: In vivo inhibition of bile acid uptake: fecal excretion of 75SeHCAT (% inhibition of 75SeHCAT)
Parameters: species or system Male Spraque-Dawley rats
Conditions: oral gavage, twice daily for two days, rat, feces over 24 hr
Description: In vivo inhibition of bile acid uptake
Inhibiting intestinal bile acid absorption with bile acid sequestrants or surgically with partial ileal bypass surgery is an effective way to decrease plasma LDL cholesterol concentration. Another approach to decreasing bile acid absorption is inhibiting the ileal bile acid active uptake transport system. It has been shown that this inhibition, as measured by the fecal excretion of bile acids results in hypocholesterolemic activity. (1) Lewis, M. C.; Brieaddy, L. E.; and Root, C. Effects of 2164U90 on Ileal Bile Acid Absorption and Serum Cholesterol in Rats and Mice. J. Lipid. Research., 1995, 36, 1098-1105.
Fecal Excretion of Bile Acids
Male Spraque-Dawley rats weighing 220-260 g were housed in individual cages and fed normal chow. The rats were divided into 6 treatment groups of 10 to 12 rats per group. The rats were dosed by oral gavage(1 mL/100 g body weight) with test compounds as a suspension in 0.5% methylcellulose at 9:00 am and 3:30 pm for two days. The control group received 0.5% methylcellulose. Two hours after the morning dose on day two, the rats were given a trace amount(1.3 nmoles) of 23, 25-^75 Se-homocholic acid taurine(^75 SeHCAT) in 1.0 mL saline orally. ^75 SeHCAT, a synthetic gamma emitting bile acid analog which is absorbed by the ileal bile acid uptake system similar to taurocholic acid, has been used clinically as a measure of ileal bile acid absorptionl,^1,2. Feces were collected over the 24 hr following ^75 SeHCAT administration. Fecal content of ^75 SeHCAT was determined using a Packard Auto-Gamma 5000 Series gamma-counter. Representative data are tabulated in Table 1 as the % inhibition of ^75 SeHCAT.

Row | SMILES | % Inhibition of ^75 SeHCAT (0.1 mg/kg) | % Inhibition of ^75 SeHCAT (0.3 mg/kg) | % Inhibition of ^75 SeHCAT (1.0 mg/kg)
1 | CCCC[C@]1(CC)CS(=O)(=O)c2cc(OC)ccc2[C@@H](c2ccccc2)N1 (relative stereo) [Example 10, (+-)-Trans-3-butyl-3-ethyl-2,3,4,5-tetrahydro-8-methoxy-5-phenyl-1,4-benzothiazepine 1,1-dioxide] | 33% | 53% | 
2 | CCCC[C@]1(CC)CS(=O)(=O)c2cc(O)ccc2[C@@H](c2ccccc2)N1 (relative stereo) [Example 11, (+-)-trans-3-butyl-3-ethyl-2,3,4,5-tetrahydro-5-phenyl-1,4-benzothiazepine-8-ol 1,1-dioxide] | 71% | 72% | 
3 | CCCC[C@]1(CC)CS(=O)(=O)c2cc(OC)c(C=O)cc2[C@@H](c2ccccc2)N1 (relative stereo) [Example 14, (+-)-Trans-3-butyl-3-ethyl-2,3,4,5-tetrahydro-8-methoxy-5-phenyl-1,4-benzothiazepine-7-carbaldehyde 1,1-dioxide] |  | 41% | 56%
4 | CCCC[C@]1(CC)CS(=O)(=O)c2cc(O)c(C=O)cc2[C@@H](c2ccccc2)N1 (relative stereo) [Example 16, (+-)-Trans-3-butyl-3-ethyl-2,3,4,5-tetrahydro-8-hydroxy-5-phenyl-1,4-benzothiazepine-7-carbaldehyde 1,1-dioxide] |  | 34% | 44%
5 | CCCC[C@]1(CC)CS(=O)(=O)c2cc(S(=O)(=O)O)ccc2[C@@H](c2ccccc2)N1 (relative stereo) [Example 18, (+-)-Trans-3-butyl-3-ethyl-2,3,4,5-tetrahydro-5-phenyl-1,4-benzothiazepine-8-sulfonic acid 1,1-dioxide] |  | 12% | 39%
6 | CCCC[C@]1(CC)CS(=O)(=O)c2cc(OC)c(COC)cc2[C@@H](c2ccccc2)N1 (relative stereo) [Example 24, (+-)-Trans-3-butyl-3-ethyl-2,3,4,5-tetrahydro-8-methoxy-7-(methoxymethyl)-5-phenyl-1,4-benzothiazepine 1,1-dioxide] |  | 24% | 49%
7 | CCCC[C@]1(CC)CS(=O)(=O)c2cc(OC)c(OC)cc2[C@@H](c2ccccc2)N1OC(C)=O (relative stereo) [Example 45, (+-)-Trans-3-butyl-3-ethyl-5-phenyl-2,3,4,5-tetrahydro-7,8-dimethoxy-1,4-benzothiazepin-4-yl acetate S,S-dioxide] |  | 6% | 26%
8 | CCCC[C@]1(CC)CS(=O)(=O)c2cc(OC)c(OC)cc2[C@@H](c2ccccc2)N1 [Example 1, (3R,5R)-3-butyl-3-ethyl-2,3,4,5-tetrahydro-7,8-dimethoxy-5-phenyl-1-4-benzothiazepine 1,1-dioxide] | 54% | 51% | 
9 | CCCC[C@]1(CC)CS(=O)(=O)c2cc(O)c(O)cc2[C@@H](c2ccccc2)N1 [Example 7, (3R,5R)-3-Butyl-3-ethyl-2,3,4,5-tetrahydro-5-phenyl-1,4-benzothiazepine-7,8-diol 1,1-dioxide] | 72% | 65% | 
10 | CCCC[C@]1(CC)CS(=O)(=O)c2cc(O)c(OC)cc2[C@@H](c2ccccc2)N1 [Example 9, (3R,5R)-3-Butyl-3-ethyl-2,3,4,5-tetrahydro-7-methoxy-5-phenyl-1,4-benzothiazepine-8-ol 1,1-dioxide] | 70% | 80% | 
